Experimental data taken from patent publication US20110117169A1, “METHODS AND COMPOSITIONS FOR CAPTURE OF CELLS” (AFFINERGY, INC., priority 2009, published 2011).
Ends that are not written are not given here.

How the values were obtained:
TGF-β3 = target: T1, TGF-β3 (Homo sapiens, UniProt P10600); test: ELISA-type binding of growth factor to biotinylated peptide on streptavidin plates; settings: peptide 0.2 μM on streptavidin plate, TGF-β3 1 μM-1 nM
T1 sequence (P10600 301-412 limits assumed): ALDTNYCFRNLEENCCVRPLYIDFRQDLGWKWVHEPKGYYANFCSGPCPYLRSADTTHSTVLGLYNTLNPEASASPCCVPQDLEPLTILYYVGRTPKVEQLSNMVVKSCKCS
Source text: Peptides that bind TGF-β3 were identified by phage display biopanning. Recombinant human TGF-β3 (rhTGF-β3) was biotinylated and immobilized on streptavidin-coated microtiter plates. Twenty-two different phage display libraries were used for the selection. Enrichment of target-binding phage in the selection was monitored using an ELISA-type assay with an HRP-conjugated anti-M13 antibody. After enrichment for TGF-β3 specific phage, individual phage were picked, propagated on E. coli, and tested for binding to TGF-β3. Over 20 individual phage were isolated that bound TGF-β3. […] The TGF-β3-binding peptide sequences were then synthesized using standard solid-phase peptide synthesis techniques on a Symphony Peptide Synthesizer (PROTEIN TECHNOLOGIES, Tucson, Ariz.) using standard Fmoc chemistry as described herein above at Example 2. Biotinylated peptides were generated similarly, with a GSSGK(biotin) sequence added to the C-terminus of the peptide.
The TGF-β binding peptides with the biotin moiety on their C-terminus were tested for their ability to bind the target growth factor using the following methods. Streptavidin-coated plates were first prepared by generating a 1:100 dilution of streptavidin (1 mg/mL) in 0.1M NaHCO3 buffer. […] To reveal immunoreactivity, 100 μL of para-nitrophenyl phosphate solution was added to each well, and optical density was recorded on a spectrophotometer.

[1] = system: human MSCs (mixed with IM-9 and U937 cells); test: Capture of MSCs from a mixed cell population with peptide on CELLECTION magnetic beads; type: cell-based; settings: starting mixture 38% IM9, 56% U937, 4% MSC
Source text: In this experiment, biotinylated cell binding peptide, SEQ ID NO: 16, was attached to CELLECTION magnetic beads. The CELLECTION beads have streptavidin coupled to a magnetic particle through a DNA linker. Three different cell types, human MSCs, IM-9, and U937 cells were differentially labeled with […] dye and mixed in a ratio such that the MSCs represented ˜4% of the starting cell mixture (the percentage of each cell type in the starting mixture was 38% IM9, 56% U937, and 4% MSC). The cell binding peptide, SEQ ID NO: 16, was biotinylated as described herein at Example 2, as was a general cell binding peptide for use as a control peptide in the experiment. Magnetic particles with no peptide attached, as well as magnetic beads having attached either the cell binding peptide, SEQ ID NO: 16, or the control peptide were tested for their ability to capture human MSCs. The starting cell mixture was incubated with magnetic beads having either attached peptide or no peptide, the beads were washed, and the captured cells were released from the beads by DNase treatment. The cells were measured by flow cytometry histograms shown in 18A-18C. The magnetic beads without peptide captured little or no cells (FIG. 18B). The magnetic beads with attached cell binding peptide SEQ ID NO: 16 captured a cell population that was 96% MSCs (FIG. 18C).

[2] = system: human ASCs (adipose-derived mesenchymal stem cells); test: Biotinylated peptide cell binding specificity, flow cytometry with Neutravidin-PE; settings: 25 μM solution, 30 min at 4° C.
Source text: (§1) The synthetic biotinylated cell binding peptide SEQ ID NO: 4 was examined for its ability to specifically bind MSCs compared to a number of other cells types including adipose-derived mesenchymal stem cells (ASCs), dermal fibroblasts, rodent MSCs, red blood cells, monocytes, lymphocytes and granulocytes. The cell binding peptide was biotinylated as described herein at Example 2. Cultured cells of each type were either purchased (ASCs and dermal fibroblasts) or isolated from rodent bone marrow (rodent MSCs) or human blood. Cells were first harvested and resuspended at 10^6/mL in PBS+2% fetal bovine serum (FBS). An aliquot of cells (50 μL) was incubated in 50 μL of peptide solution (25 μM in PBS+FBS) for 30 min at 4° C. Cells were then washed twice in PBS+FBS with 300×g centrifugation for 5 min between washes. Fluorescently-tagged neutravidin (Neutravidin-PE from INVITROGEN) was then added to the cells to label biotinylated peptide bound to cells. Neutravidin-PE was diluted 1:250 from stock and applied at 50 μL to cells. Cells were then washed in PBS+FBS, and acquired on a BD […]. Peptide reactivity was then measured as percent positivity relative to Neutravidin-PE staining without the addition of biotinylated peptide.

human MSCs = test: as above; settings: 25 μM solution, 30 min at 4° C.
Source text: as §1

dermal fibroblasts = test: as above; set-up: species or system human; settings: 25 μM solution, 30 min at 4° C.
Source text: as §1

[3] = system: endothelial colony forming cells (ECFCs); test: Biotinylated peptide binding to endothelial and other cells, flow cytometry; set-up: species or system human; settings: biotinylated peptide 10 μM, 30 min at 4° C.
Protocol: (§2) The synthetic biotinylated binding peptide SEQ ID NO: 4 was further examined for its ability to bind endothelial cells compared to other cell types (see FIG. 16). […] ECFCs are clonally expanded cells isolated from human umbilical cord blood, and are considered highly proliferative endothelial progenitor cells (EPCs) based on their clonogenic and proliferative potential. In another experiment, binding peptide SEQ ID NO: 4 was assayed for its ability to selectively isolate endothelial cells versus smooth muscle cells in the presence of whole blood. HUVECs or UASMCs were incubated in the presence of medium containing 20% whole blood and binding peptide SEQ ID NO: 4-conjugated magnetic beads (via biotin-SA) for 30 min. The solutions containing the bead-peptide-cell complexes were then passed through a […] LS column in a magnetic field. The column was washed, and the remaining peptide-bound cells were then released from the magnetic field and counted.

[4] = system: human umbilical vein endothelial cells (HUVECs); test: as above; settings: biotinylated peptide 10 μM, 30 min at 4° C.
Protocol: as §2

[5] = system: umbilical artery smooth muscle cells (UASMCs); test: as above; settings: biotinylated peptide 10 μM, 30 min at 4° C.
Protocol: as §2

Sequence: SSCNNLSVCTFDKIIERNRSSR (SSCNNLSVCTFDKIIERNRSSRGSSG-{K(biotin)}; cysteine pairing not given here) [SEQ ID NO: 21, tested with C-terminal GSSGK(biotin)]
- binding affinity for TGF-β3 (TGF-β3): best binding affinity

Sequence: SSFRFGPLGTWNYPSTDNAE (also: biotin, site not given here) [SEQ ID NO: 16, tested biotinylated]
- MSCs in captured cell population [1]: 96%

Sequence: SSFWDVCQGDGTCYGGGSR (SSFWDVCQGDGTCYGGGSRGSSG-{K(biotin)}; cysteine pairing not given here) [SEQ ID NO: 4, tested biotinylated (C-terminal GSSGK(biotin) or other spacer)]
- binding to human ASCs (percent positivity relative to Neutravidin-PE staining) [2]: high binding
- binding to human MSCs (percent positivity relative to Neutravidin-PE staining) (human MSCs): high binding
- binding to dermal fibroblasts (percent positivity relative to Neutravidin-PE staining) (dermal fibroblasts): high binding
- cross-reactivity with ECFCs [3]: cross-reacted strongly
- cross-reactivity with HUVECs [4]: cross-reacted strongly
- cross-reactivity with UASMCs [5]: weakly
